Source: ChEMBL document CHEMBL1201862, “PubChem BioAssay data set” (2004)
Calls of active or inactive are those of the source. Cut-off read from the data, not from the text of the source: actives have a measured IC50 and inactives only a lower limit.

Molecular target: Envelope glycoprotein gp160 (Human immunodeficiency virus 1, UniProt Q6QLK5)
Experiment: inhibitors of HIV fusion peptide binding, primary screen, biochemical, uHTS, fluorescence dequenching (AID 1986)

Envelope glycoprotein gp160, sequence (Q6QLK5 whole entry, the tested form may be a part): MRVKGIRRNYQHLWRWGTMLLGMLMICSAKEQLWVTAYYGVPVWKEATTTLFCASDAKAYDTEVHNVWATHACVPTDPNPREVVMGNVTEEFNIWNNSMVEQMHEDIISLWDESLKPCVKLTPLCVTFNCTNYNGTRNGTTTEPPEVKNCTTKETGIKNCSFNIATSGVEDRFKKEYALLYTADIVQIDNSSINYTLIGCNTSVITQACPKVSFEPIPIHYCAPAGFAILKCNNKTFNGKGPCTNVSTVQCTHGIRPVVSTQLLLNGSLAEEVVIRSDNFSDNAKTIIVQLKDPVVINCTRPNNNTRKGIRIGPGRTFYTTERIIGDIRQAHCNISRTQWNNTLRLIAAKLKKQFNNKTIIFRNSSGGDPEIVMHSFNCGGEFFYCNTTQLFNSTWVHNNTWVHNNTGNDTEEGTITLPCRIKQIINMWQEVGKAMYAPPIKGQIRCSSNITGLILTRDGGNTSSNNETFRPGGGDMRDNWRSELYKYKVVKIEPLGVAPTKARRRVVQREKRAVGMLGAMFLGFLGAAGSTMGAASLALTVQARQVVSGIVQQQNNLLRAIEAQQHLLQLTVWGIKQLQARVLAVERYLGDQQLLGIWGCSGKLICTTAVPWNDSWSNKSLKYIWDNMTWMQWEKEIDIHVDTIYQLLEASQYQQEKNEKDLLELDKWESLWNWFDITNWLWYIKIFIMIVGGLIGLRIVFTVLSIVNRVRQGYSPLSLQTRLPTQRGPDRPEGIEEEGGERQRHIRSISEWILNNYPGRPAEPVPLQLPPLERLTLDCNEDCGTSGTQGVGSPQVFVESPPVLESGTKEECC

Row | Structure (SMILES) | IC50
1 | COc1ccc(C(=O)Nc2ccccc2C(=O)O)cc1NC(=O)C(c1ccccc1)c1ccccc1 | 14.1 µM (active)
2 | CCOC(=O)c1c(N2C(=O)Nc3cc(Cl)c(Cl)cc3N2O)sc2c1CCCCC2 | 22.3 µM (active)
